Broadly, the IC50 is the concentration needed to halve the response being measured.

The test deals with Cbl-b (36-427 aa truncated form, N-terminus Avi-tag) (Homo sapiens (Human), UniProt Q13191). Briefly: Cbl-b binding: TR-FRET displacement of BODIPY-FL probe. As to the method: Compounds were assessed for binding activity to Cbl-b by their ability to compete with and displace a probe comprised of BODIPY-FL fluorophore conjugated to a Cbl-b inhibitor (see Example 54 in WO2020264398). In the assay, a 36-427 aa truncated form of Cbl-b with an N-terminus Avi-tag was incubated 20 mM HEPES pH 7.5, 150 mM NaCl, 0.01% Triton X-100, 0.1% BSA, 0.5 mM TCEP buffer with streptavidin-terbium (Cisbio). After one hour of incubation at room temperature, 1 uM each of fluorescent probe and compound were combined with the reaction mixture. Compounds with Cbl-b binding activity competitively displace the fluorophore tagged inhibitor thereby disrupting the FRET signal from the terbium-BODIPY-FL complex. The reaction mixtures were incubated for one additional hour at room temperature to allow for competition between inhibitor and candidate compounds to occur. The time resolved FRET (TR-FRET) signal was then read at 520/620 […] (excitation/emission) using a Spectramax M5e plate reader (Molecular Devices) to measure probe displacement. Compounds with Cbl-b binding activity had decreased FRET signal owing to disruption of the terbium-BODIPY-FL FRET complex. Standard methods in PRISM were used to calculate the compound IC50 values from the experimental data.
Cbl-b (36-427 aa truncated form, N-terminus Avi-tag), sequence (Q13191 36-427): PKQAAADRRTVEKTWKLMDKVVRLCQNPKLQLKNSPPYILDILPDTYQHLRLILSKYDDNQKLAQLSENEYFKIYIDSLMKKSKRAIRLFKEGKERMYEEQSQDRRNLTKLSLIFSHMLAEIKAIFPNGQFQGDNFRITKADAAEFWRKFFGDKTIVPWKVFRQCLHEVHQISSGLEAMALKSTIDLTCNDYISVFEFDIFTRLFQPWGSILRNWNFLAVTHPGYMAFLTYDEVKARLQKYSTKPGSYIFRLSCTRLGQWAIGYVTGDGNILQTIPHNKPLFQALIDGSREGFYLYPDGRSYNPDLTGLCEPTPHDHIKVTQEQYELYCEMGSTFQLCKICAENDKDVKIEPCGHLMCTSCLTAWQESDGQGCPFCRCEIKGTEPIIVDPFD
On the technique in general: In TR-FRET formats the signal depends on donor and acceptor labels being close together.
`CN1CCOC2(CCN(Cc3cc4c(c(C(F)(F)F)c3)CN(c3cc(C5(Cc6nncn6C)COC5)cc(NCCC#N)n3)C4=O)C2)C1` (stereo not shown) [Compound 163, 3-[(4-{3-[(4-methyl-1,2,4-triazol-3-yl)methyl]oxetan-3-yl}-6-[6-({9-methyl-6-oxa-2,9-diazaspiro[4.5]decan-2-yl}methyl)-1-oxo-4-(trifluoromethyl)-3H-isoindol-2-yl]pyridin-2-yl)amino]propanenitrile] registered a 50% inhibitory concentration (IC50) of 5.01 to 20 nM.
Turning to `Cn1cnnc1CC1(c2cc(NCCC#N)nc(N3Cc4c(cc(CN5CC[C@@H](CN6CCOCC6)C5)cc4C(F)(F)F)C3=O)c2)COC1` [Compound 165, 3-[(4-{3-[(4-methyl-1,2,4-triazol-3-yl)methyl]oxetan-3-yl}-6-(6-{[(3R)-3-(morpholin-4-ylmethyl)pyrrolidin-1-yl]methyl}-1-oxo-4-(trifluoromethyl)-3H-isoindol-2-yl)pyridin-2-yl)amino]propanenitrile; trifluoroacetic acid], the half-maximal inhibitory concentration (IC50) was in the range of 5.01 to 20 nM.
`CCSc1cc(C2(Cc3nncn3C)COC2)cc(N2Cc3c(C(=O)O)cc(CN4CCC[C@H](C)C4)cc3C2=O)n1` [Compound 166, 2-[6-(ethylsulfanyl)-4-{3-[(4-methyl-1,2,4-triazol-3-yl)methyl]oxetan-3-yl}pyridin-2-yl]-6-{[(3S)-3-methylpiperidin-1-yl]methyl}-1-oxo-3H-isoindole-4-carboxylic acid; trifluoroacetic acid] registered a half-maximal inhibitory concentration (IC50) of 5.01 to 20 nM.
The compound `CCSc1cc(C2(Cc3nncn3C)COC2)cc(N2Cc3c(cc(CN4CCC[C@H](C)C4)cc3-c3nnn[nH]3)C2=O)n1` [Compound 167, 2-[6-(ethylsulfanyl)-4-{3-[(4-methyl-1,2,4-triazol-3-yl)methyl]oxetan-3-yl}pyridin-2-yl]-6-{[(3S)-3-methylpiperidin-1-yl]methyl}-4-(1H-1,2,3,4-tetrazol-5-yl)-3H-isoindol-1-one] came in with an IC50 of 5.01 to 20 nM.
The same measure for `CC1CC(c2cc(NCCN=[N+]=[N-])nc(N3Cc4c(cc(CN5CCC[C@H](C)C5)cc4C(F)(F)F)C3=O)c2)(c2nncn2C)C1` (stereo partly drawn) [Compound 168, 2-{6-[(2-azidoethyl)amino]-4-[(1r,3s)-3-methyl-1-(4-methyl-1,2,4-triazol-3-yl)cyclobutyl]pyridin-2-yl}-6-{[(3S)-3-methylpiperidin-1-yl]methyl}-4-(trifluoromethyl)-3H-isoindol-1-one]: 20 to 100 nM.
Take `CCNc1cc([C@]2(c3nncn3C)C[C@H](C)C2)cc(N2Cc3c(cc(CN4CCC[C@H](C)C4)cc3S(C)(=O)=O)C2=O)n1` [Compound 172, 2-[6-(ethylamino)-4-[(1r,3s)-3-methyl-1-(4-methyl-1,2,4-triazol-3-yl)cyclobutyl]pyridin-2-yl]-4-methanesulfonyl-6-{[(3S)-3-methylpiperidin-1-yl]methyl}-3H-isoindol-1-one; trifluoroacetic acid]: the concentration for half-maximal inhibition (IC50) lay in the range of 100 to 1000 nM.
In turn, `C[C@H]1CCCN(Cc2cc(C=O)c3c(c2)C(=O)N(c2cc(C4(Cc5nncn5C)COC4)cc(NCCC#N)n2)C3)C1` [Compound 177, 3-{[6-(4-formyl-6-{[(3S)-3-methylpiperidin-1-yl]methyl}-1-oxo-3H-isoindol-2-yl)-4-{3-[(4-methyl-1,2,4-triazol-3-yl)methyl]oxetan-3-yl}pyridin-2-yl]amino}propanenitrile] showed an IC50 of 1 to 5 nM.
In the case of `CCNc1cc(C2(c3nncn3C)CC(C)C2)cc(N2Cc3c(cc(CN4CCC[C@H](C)C4)cc3[S+](C)[O-])C2=O)n1` (stereo partly drawn) [Compound 178, 2-[6-(ethylamino)-4-[(1r,3s)-3-methyl-1-(4-methyl-1,2,4-triazol-3-yl)cyclobutyl]pyridin-2-yl]-4-methanesulfinyl-6-{[(3S)-3-methylpiperidin-1-yl]methyl}-3H-isoindol-1-one], the IC50 was 100 to 1000 nM.
The compound `CCNc1cc(C2(Cc3nncn3C)COC2)cc(N2Cc3c(cc(CN4CCC[C@H](C)C4)cc3S(C)(=O)=O)C2=O)n1` [Compound 179, 2-[6-(ethylamino)-4-{3-[(4-methyl-1,2,4-triazol-3-yl)methyl]oxetan-3-yl}pyridin-2-yl]-4-methanesulfonyl-6-{[(3S)-3-methylpiperidin-1-yl]methyl}-3H-isoindol-1-one; formic acid] displayed an IC50 of 100 to 1000 nM.
For `CCNc1cc(C2(Cc3nncn3C)COC2)cc(N2Cc3c(cc(CN4CCC[C@H](C)C4)cc3[S+](C)[O-])C2=O)n1` (stereo partly drawn) [Compound 180, 2-[6-(ethylamino)-4-{3-[(4-methyl-1,2,4-triazol-3-yl)methyl]oxetan-3-yl}pyridin-2-yl]-4-methanesulfinyl-6-{[(3S)-3-methylpiperidin-1-yl]methyl}-3H-isoindol-1-one] the value was 100 to 1000 nM.
`Cn1cnnc1CC1(c2cc(NCCC#N)nc(N3Cc4c(cc(CN5CCC6CC(O)CCC6C5)cc4C(F)(F)F)C3=O)c2)COC1` (stereo not shown) [Compound 183, 3-((6-(6-((6-hydroxyoctahydroisoquinolin-2 (1H)-yl)methyl)-1-oxo-4-(trifluoromethyl)isoindolin-2-yl)-4-(3-((4-methyl-4H-1,2,4-triazol-3-yl)methyl)oxetan-3-yl)pyridin-2-yl)amino)propanenitrile; trifluoroacetic acid] came in with a half-maximal inhibitory concentration (IC50) of 100 to 1000 nM.
The compound `Cn1cnnc1CC1(c2cc(NCCC#N)nc(N3Cc4c(cc(CN5CCN(c6ccccc6O)CC5)cc4C(F)(F)F)C3=O)c2)COC1` [Compound 184, 3-((6-(6-((4-(2-hydroxyphenyl)piperazin-1-yl)methyl)-1-oxo-4-(trifluoromethyl)isoindolin-2-yl)-4-(3-((4-methyl-4H-1,2,4-triazol-3-yl)methyl)oxetan-3-yl)pyridin-2-yl)amino)propanenitrile; trifluoroacetic acid] gave an IC50 of 5.01 to 20 nM.
The same measure for `Cn1cnnc1CC1(c2cc(NCCC#N)nc(N3Cc4c(cc(CN5CCc6ccc(O)cc6C5)cc4C(F)(F)F)C3=O)c2)COC1` [Compound 185, 3-((6-(6-((7-hydroxy-3,4-dihydroisoquinolin-2 (1H)-yl)methyl)-1-oxo-4-(trifluoromethyl)isoindolin-2-yl)-4-(3-((4-methyl-4H-1,2,4-triazol-3-yl)methyl)oxetan-3-yl)pyridin-2-yl)amino)propanenitrile; trifluoroacetic acid]: 5.01 to 20 nM; for `CCNc1cc(C(CO)(CCl)Cc2nncn2C)cc(N2Cc3c(cc(CN4CCC[C@H](C)C4)cc3C(F)(F)F)C2=O)n1` (stereo partly drawn) [Compound 187, 2-(4-(1-chloro-3-hydroxy-2-((4-methyl-4H-1,2,4-triazol-3-yl)methyl)propan-2-yl)-6-(ethylamino)pyridin-2-yl)-6-(((S)-3-methylpiperidin-1-yl)methyl)-4-(trifluoromethyl)isoindolin-1-one; hydrochloric acid]: 20 to 100 nM.
`CCSc1cc(C(CO)(CCl)Cc2nncn2C)cc(N2Cc3c(cc(CN4CCC[C@H](C)C4)cc3C(F)(F)F)C2=O)n1` (stereo partly drawn) [Compound 188, 2-(4-(1-chloro-3-hydroxy-2-((4-methyl-4H-1,2,4-triazol-3-yl)methyl)propan-2-yl)-6-(ethylthio)pyridin-2-yl)-6-(((S)-3-methylpiperidin-1-yl)methyl)-4-(trifluoromethyl)isoindolin-1-one; hydrochloric acid] displayed a concentration for half-maximal inhibition (IC50) of 100 to 1000 nM.
On to `Cn1cnnc1CC1(c2cc(NCCC#N)nc(N3Cc4c(cc(CN5CC6(CCC6O)C5)cc4C(F)(F)F)C3=O)c2)COC1` (stereo not shown) [Compound 189, 3-((6-(6-((5-hydroxy-2-azaspiro[3.3]heptan-2-yl)methyl)-1-oxo-4-(trifluoromethyl)isoindolin-2-yl)-4-(3-((4-methyl-4H-1,2,4-triazol-3-yl)methyl)oxetan-3-yl)pyridin-2-yl)amino)propanenitrile; trifluoroacetic acid], for which the IC50 was in the range of 5.01 to 20 nM.

Source of the values: patent US20250304563A1, “ACTIVATORS OF EFFECTOR T CELLS” (Orum Therapeutics, Inc., priority 2022, published 2025).
